# Measured values as given in patent US9746466B2, “Integrated compound discovery systems and methods” (Wake Forest University, priority 2011, dated 2017).
# Molecular target: thrombin (Homo sapiens, UniProt P00734)
# Assay: on-chip binding of TAMRA-labeled thrombin to bead-displayed oligonucleotides on Ion Torrent sequencing chips, fluorescence imaging
# Settings: after washing, fluorescence imaging of wells, 20mer GT randomer library doped with thrombin aptamer
# Description: Embodiments of the present invention reduce uncertainty due to amplification-based biases, blind spots and inference-based methods of deconvoluting candidate sequences through direct, on-chip analysis of candidate sequences and their target-binding properties. […] We obtained DNA libraries containing a 20mer GT randomer region flanked by Ion Torrent adaptor sequences (ITD, Coralville, Iowa). Libraries were doped with increasing amounts of the thrombin aptamer (with adaptors). […] The number of full-length reads correlates with the amount of thrombin aptamer doped into GT randomer libraries.
sequence,measurement,value
"GGTTGGTGTGGTTGG (DNA, backbone not given here) [thrombin aptamer]",intensity of the TAMRA signal,highest
same,residence time of the TAMRA signal,highest
